According to PubChem BioAssay (NCI):
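Five concentrations, 48 hours, 96-well plates. GI50 = concentration required for 50% inhibition of growth. TGI: concentration producing complete growth inhibition.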 *1 amine or outer side, *2 acyl side, *3 side chain or, on linkers, in order; H or OH if unused. Where a SMILES comes first, the peptide text is derived from it. Bridges are numbered along the chain shown (N, C = ends). Roman numbers before positions name the chains, in order. [ ]: non-standard residue; d: D form. Actinocin(9to1) = Cc1c2oc3c(C)ccc(C(=O)[*:1])c3nc-2c(C(=O)[*:2])c(N)c1=O; NMeV = CN[CH](C(=O)O)C(C)C; Sar = CNCC(=O)O

How the values were obtained:
Experiment in all cases: NCI tumour cell line growth inhibition, 48 h
BT-549 breast = test system: BT-549 breast
CAKI-1 renal = test system: CAKI-1 renal
MCF7 breast = test system: MCF7 breast
OVCAR-3 ovarian = test system: OVCAR-3 ovarian
OVCAR-4 ovarian = test system: OVCAR-4 ovarian
PC-3 prostate = test system: PC-3 prostate
RPMI-8226 leukemia = test system: RPMI-8226 leukemia
SF-539 CNS = test system: SF-539 CNS
HOP-92 NSCLC = test system: HOP-92 NSCLC
SK-MEL-28 melanoma = test system: SK-MEL-28 melanoma

SMILES | TGI (BT-549 breast) | TGI (CAKI-1 renal) | TGI (MCF7 breast) | TGI (OVCAR-3 ovarian) | TGI (OVCAR-4 ovarian) | TGI (PC-3 prostate) | TGI (RPMI-8226 leukemia) | TGI (SF-539 CNS) | TGI (HOP-92 NSCLC) | TGI (SK-MEL-28 melanoma) | GI50 (BT-549 breast) | GI50 (CAKI-1 renal) | GI50 (HOP-92 NSCLC) | GI50 (PC-3 prostate) | GI50 (RPMI-8226 leukemia) | GI50 (SF-539 CNS) | GI50 (SK-MEL-28 melanoma)
CCCCNC(=S)Nc1nc(C(=O)NNC(=S)NCc2ccccc2)cs1 | > 100 µM | 90.1 µM | > 100 µM | > 100 µM | > 100 µM | > 100 µM | > 100 µM | 68.6 µM | – | – | – | – | – | – | – | – | –
O=[N+]([O-])c1cccc([N+](=O)[O-])c1Cl | – | 7.68 µM | > 100 µM | 4.84 µM | 45.6 µM | 38.7 µM | > 100 µM | 35 µM | 45.3 µM | 42 µM | – | – | – | – | – | – | –
CCCCN(CCCC)C1=Nc2ccccc2-n2c(nnc2C(=O)OCC)C1 | – | > 100 µM | > 100 µM | > 100 µM | > 100 µM | 51.6 µM | > 100 µM | > 100 µM | 81.5 µM | > 100 µM | – | – | – | – | – | – | –
CCOC(=O)COC1=Nc2cc(OC)c(OC)c3nc(Cl)cc(c23)C1=O | 3.45 µM | 3.58 µM | 3.46 µM | – | 3.14 µM | 3.45 µM | > 100 µM | 3.87 µM | 3.22 µM | 4.01 µM | – | – | – | – | – | – | –
N#C[C@H]1C(=O)C(c2nc3ccccc3[nH]2)S[C@H]1c1ccccc1 (some centres not stated) | 92.4 µM | > 100 µM | > 100 µM | > 100 µM | > 100 µM | – | 89.7 µM | – | 67.3 µM | > 100 µM | – | – | – | – | – | – | –
COc1ccc(OC)c(-c2cn3c(n2)sc2ccccc23)c1 | > 100 µM | > 100 µM | > 100 µM | > 100 µM | > 100 µM | > 100 µM | > 100 µM | > 100 µM | > 100 µM | – | – | – | – | – | – | – | –
C=C1C(=O)O[C@H]2[C@H]1CC/C(COC(=O)/C=C/C(=O)OC/C1=C/CC[C@@]3(C)O[C@H]3[C@H]3OC(=O)C(=C)[C@@H]3CC1)=C\CC[C@@]1(C)O[C@@H]21 | 4.41 µM | 3.43 µM | – | – | – | > 100 µM | 4 µM | 7.86 µM | 1.8 µM | 4.13 µM | 1.58 µM | 1.08 µM | 0.549 µM | 3.02 µM | 0.868 µM | 2.5 µM | 1.56 µM
O=C1/C(=C/C=C/c2ccccc2)CCC1CNc1ccc(Br)cc1 (configuration not stated) | > 100 µM | > 100 µM | > 100 µM | > 100 µM | > 100 µM | > 100 µM | – | > 100 µM | > 100 µM | > 100 µM | – | – | – | – | – | – | –
CCOC(=O)c1c(SCCN2CCCCC2)n(-c2ccccc2)c(=S)n(-c2ccccc2)c1=O | 31.1 µM | – | 18.3 µM | 24.7 µM | 33 µM | 27.7 µM | > 21.9 µM | – | 30.8 µM | 24 µM | – | – | – | – | – | – | –
COc1c(-c2ccc(F)cc2)oc2cc(O)cc(O)c2c1=O | – | 48.5 µM | > 100 µM | > 100 µM | – | > 100 µM | > 100 µM | 39.7 µM | > 100 µM | > 100 µM | – | – | – | – | – | – | –
O=C1CCc2cc3c(cc21)C(C(=O)O)CC3 (configuration not stated) | > 100 µM | > 100 µM | > 100 µM | – | > 100 µM | > 100 µM | > 100 µM | > 100 µM | – | > 100 µM | – | – | – | – | – | – | –
Cn1c(O)c(/C=N/c2ncccn2)c(=O)[nH]c1=O | – | > 100 µM | > 100 µM | > 100 µM | > 100 µM | > 100 µM | – | > 100 µM | > 100 µM | > 100 µM | – | – | – | – | – | – | –
Oc1ccc(O)c(Sc2nnc(CCCCCCCCc3nnc(Sc4cc(O)ccc4O)o3)o2)c1 | > 100 µM | 69.7 µM | 94.1 µM | – | > 100 µM | > 100 µM | > 100 µM | – | 65.7 µM | > 100 µM | – | – | – | – | – | – | –
COC(=O)c1c(C)cccc1C1CN=NC12Cc1cccc(C)c1C2=O (configuration not stated) | 88.6 µM | > 100 µM | > 100 µM | – | > 100 µM | 71.1 µM | > 100 µM | 44.5 µM | 47.6 µM | > 100 µM | – | – | – | – | – | – | –
Cc1ccc(Cl)c2c(=O)cc(-c3ccccc3)[nH]c12 | – | > 100 µM | – | – | > 100 µM | – | > 100 µM | > 100 µM | > 100 µM | > 100 µM | – | – | – | – | – | – | –
S=c1oc(CCCCCCCCc2nn(CNc3ccc(Cl)cc3)c(=S)o2)nn1CNc1ccc(Cl)cc1 | > 100 µM | > 100 µM | > 100 µM | – | > 100 µM | > 100 µM | > 100 µM | – | > 100 µM | > 100 µM | – | – | – | – | – | – | –
Cc1cn([C@@H]2C[C@](C)(CO)N(C)O2)c(=O)[nH]c1=O | > 100 µM | > 100 µM | > 100 µM | – | > 100 µM | > 100 µM | > 100 µM | – | > 100 µM | > 100 µM | – | – | – | – | – | – | –
OCC1c2ccccc2-n2nc(-c3ccccc3)c(O)c21 (configuration not stated) | 85.1 µM | 31.7 µM | 36.7 µM | 79.2 µM | > 100 µM | 34.3 µM | – | > 100 µM | 35 µM | > 100 µM | – | – | – | – | – | – | –
Cc1c2oc3c(C)ccc(C(=O)NC4C(=O)NC(Cc5ccc(O)cc5)C(=O)N5CCCC5C(=O)N(C)CC(=O)N(C)C(C(C)C)C(=O)OC4C)c3nc-2c(C(=O)NC2C(=O)NC(Cc3ccc(O)cc3)C(=O)N3CCCC3C(=O)N(C)CC(=O)N(C)C(C(C)C)C(=O)OC2C)c(N)c1=O (configuration not stated) (I: TYP[Sar][NMeV] / II: TYP[Sar][NMeV]; ester I:1-I:C, II:1-II:C; linker I:N-II:N via Actinocin(9to1); configuration not given here) | – | 27.5 µM | 14.6 µM | > 48.1 µM | > 42.1 µM | > 100 µM | > 100 µM | > 100 µM | – | > 87 µM | – | – | – | – | – | – | –
NC(=O)CC[C@H]1C(=O)N=C(N)N1C(=O)OCc1ccccc1 | > 100 µM | > 100 µM | > 100 µM | > 100 µM | > 100 µM | > 100 µM | > 100 µM | – | – | > 100 µM | – | – | – | – | – | – | –
CC(C)(C)C(=O)O[C@H]1C=C[C@@H](O)[C@@H]2[C@H]1[C@@H]1C=C[C@H]2C1 | > 100 µM | > 100 µM | 39.9 µM | > 100 µM | 60 µM | – | 83 µM | 92.9 µM | > 100 µM | 59.2 µM | – | – | – | – | – | – | –
COC(C/C=C\C=C\CC/C=C/CC(C)/C=C/C(=C\C(=O)O)CC(=O)O)/C(C)=C\C=C(/C)C(=O)O (configuration not stated) | > 100 µM | > 100 µM | – | > 100 µM | > 100 µM | > 100 µM | > 100 µM | – | > 100 µM | > 100 µM | – | – | – | – | – | – | –
O=C(NCCNCCO)N/N=C/c1ccccc1 | – | – | – | > 100 µM | > 100 µM | – | – | > 100 µM | – | > 100 µM | – | – | – | – | – | – | –
